From patent publication US10913983B2, “Sensitivity markers and uses for CDK7 inhibitors in breast cancers” (UNIVERSITY OF SOUTH CAROLINA, priority 2017, dated 2021)

Key:
Assay type in all cases: cell-based
MDA-MB-231 = test: Cell proliferation MTT assay; conditions: MDA-MB-231, 7 days, read-out: 7 day IC50
Protocol: (§1) Cells were seeded in 12-well plates at densities ranging from 10000-30000 cells/well and after 24 hours cells were treated with 10, 40 and 100 nM THZ1 in triplicate. After 7 days the cells were imaged using Zeiss Axiovert 200 microscope using a 20× objective lens. Additionally, cells were plated in 96-well plates at a density of 2000 cells/well and after 24 hours treated with 0-10 μM THZ1. After 2 and 7 days the growth of the cells was measured by MTT assay.
(§2) All results were presented as mean±standard deviation of 4-8 parallel assessments. Similar results were obtained from a minimum of two independent experiments. […] Densitometry was performed on duplicate immunoblots using ImageLab software (Biorad) and normalized to tubulin loading controls and then correlated with the THZ1 IC50 values of each cell line. Statistical analyses were performed using SPSS 18.0 (SPSS Inc). Bi-variant scatter graphs and Spearman rank analyses were performed to evaluate associations between protein levels, mRNA and response to inhibition. IC50 values were calculated for MTT assays using CompuSyn software.

MDA-MB-361 = test: Cell proliferation MTT assay; conditions: MDA-MB-361, 7 days, read-out: 7 day IC50
Protocol: as §1, §2

MCF7 = test: Cell proliferation MTT assay; conditions: MCF7, 7 days, read-out: 7 day IC50
Protocol: as §1, §2

SKBR3 = test: Cell proliferation MTT assay; conditions: SKBR3, 7 days, read-out: 7 day IC50
Protocol: as §1, §2

T47D = test: Cell proliferation MTT assay; conditions: 7 days, read-out: 7 day IC50
Protocol: as §1, §2

ZR-75-1 = test: Cell proliferation MTT assay; conditions: ZR-75-1, 7 days, read-out: 7 day IC50
Protocol: as §1, §2

JIMT-1 = test: Cell proliferation MTT assay; conditions: JIMT-1, 7 days, MTT; read-out: 7 day IC50
Protocol: as §1, §2

[1] = tested on: panel of breast cancer cell lines; test: Cell proliferation MTT assay, cell line panel; conditions: 7 days
Protocol: as §1, §2
To investigate the effect of CDK7 inhibition in a time and dose dependent manner, an extended panel of 11 breast cancer cell lines were screened for response to THZ1 after 2 and 7 days of treatment.

CC(C)c1cnn2c(NCc3ccccc3)cc(NCCCCCCN)nc12 [BS-181]
IC50 (MDA-MB-231): 39.5 µM
IC50 (MDA-MB-361): 4.9 µM
IC50 (MCF7): 32.1 µM
IC50 (SKBR3): 8.9 µM
IC50 (T47D): 8.5 µM
IC50 (ZR-75-1): 19.6 µM
IC50 (JIMT-1): 11.1 µM
growth inhibition ([1]; all tested breast cancer cell lines): inhibited the growth of all tested breast cancer cell lines
efficiency of growth inhibition compared with THZ1 ([1]; cell line panel): much less efficient than THZ1
